Experimental data published in ChEMBL document CHEMBL3046329, “Sensitivity to silthiofam, tebuconazole and difenoconazole of Gaeumannomyces graminis var. tritici isolates from China” (Pest Manag Sci, 2012).
≈ marks a conversion by molar mass, not a printed value.

How the values were obtained:
Gaeumannomyces tritici [1] = test: Antifungal activity against sithiofam-sensitive Gaeumannomyces graminis var. tritici isolate JS08 expressing C2 genetic cluster assessed as reduction in fungal colony diameter after 4 days; assay type: functional, organism-based; details: isolate JS08, 96 h
Gaeumannomyces tritici [2] = test: Antifungal activity against sithiofam-sensitive Gaeumannomyces graminis var. tritici isolate JS03 expressing C1 genetic cluster assessed as reduction in fungal colony diameter after 4 days; assay type: functional, organism-based; details: isolate JS03, 96 h
Gaeumannomyces tritici [3] = test: Antifungal activity against sithiofam-sensitive Gaeumannomyces graminis var. tritici isolate SD05 expressing C2 genetic cluster assessed as fungal induced root necrosis administered to wheat cultivar Huaimai 30 seeds grown on fungal infested soils at 0.25 g ai/kg measured after 10 days (reference value: 27.71%); assay type: functional
Gaeumannomyces tritici [4] = test: Antifungal activity against sithiofam-sensitive Gaeumannomyces graminis var. tritici isolate SD04 expressing C2 genetic cluster assessed as fungal induced root necrosis administered to wheat cultivar Huaimai 30 seeds grown on fungal infested soils at 0.25 g ai/kg measured after 10 days (reference value: 27.34%); assay type: functional
Gaeumannomyces tritici [5] = test: Antifungal activity against sithiofam-resistant Gaeumannomyces graminis var. tritici isolate AH14 expressing C1 genetic cluster assessed as fungal induced root necrosis administered to wheat cultivar Huaimai 30 seeds grown on fungal infested soils at 0.25 g ai/kg measured after 10 days (reference value: 28.16%); assay type: functional
Gaeumannomyces tritici [6] = test: Antifungal activity against sithiofam-resistant Gaeumannomyces graminis var. tritici isolate AH02 expressing C1 genetic cluster assessed as fungal induced root necrosis administered to wheat cultivar Huaimai 30 seeds grown on fungal infested soils at 0.25 g ai/kg measured after 10 days (reference value: 28.16%); assay type: functional
Gaeumannomyces tritici [7] = test: Antifungal activity against sithiofam-resistant Gaeumannomyces graminis var. tritici isolate JS12 expressing C1 genetic cluster assessed as reduction in fungal colony diameter after 4 days; assay type: functional, organism-based; details: isolate JS12, 96 h
Gaeumannomyces tritici [8] = test: Antifungal activity against sithiofam-sensitive Gaeumannomyces graminis var. tritici isolate JS10 expressing C2 genetic cluster assessed as reduction in fungal colony diameter after 4 days; assay type: functional, organism-based; details: isolate JS10, 96 h
Gaeumannomyces tritici [9] = test: Antifungal activity against sithiofam-resistant Gaeumannomyces graminis var. tritici isolate HN20 expressing C1 genetic cluster assessed as reduction in fungal colony diameter after 4 days; assay type: functional, organism-based; details: isolate HN20, 96 h
Gaeumannomyces tritici [10] = test: Antifungal activity against sithiofam-sensitive Gaeumannomyces graminis var. tritici isolate HN28 expressing C2 genetic cluster assessed as reduction in fungal colony diameter after 4 days; assay type: functional, organism-based; details: isolate HN28, 96 h
Gaeumannomyces tritici [11] = test: Antifungal activity against sithiofam-sensitive Gaeumannomyces graminis var. tritici isolate HN26 expressing C2 genetic cluster assessed as reduction in fungal colony diameter after 4 days; assay type: functional, organism-based; details: isolate HN26, 96 h
Gaeumannomyces tritici [12] = test: Antifungal activity against sithiofam-sensitive Gaeumannomyces graminis var. tritici isolate HN24 expressing C2 genetic cluster assessed as reduction in fungal colony diameter after 4 days; assay type: functional, organism-based; details: isolate HN24, 96 h
Gaeumannomyces tritici [13] = test: Antifungal activity against sithiofam-sensitive Gaeumannomyces graminis var. tritici isolate HN22 expressing C2 genetic cluster assessed as reduction in fungal colony diameter after 4 days; assay type: functional, organism-based; details: isolate HN22, 96 h
Gaeumannomyces tritici [14] = test: Antifungal activity against sithiofam-resistant Gaeumannomyces graminis var. tritici isolate HN13 expressing C1 genetic cluster assessed as reduction in fungal colony diameter after 4 days; assay type: functional, organism-based; details: isolate HN13, 96 h
Gaeumannomyces tritici [15] = test: Antifungal activity against sithiofam-resistant Gaeumannomyces graminis var. tritici isolate HN12 expressing C1 genetic cluster assessed as reduction in fungal colony diameter after 4 days; assay type: functional, organism-based; details: isolate HN12, HN12, 96 h
Gaeumannomyces tritici [16] = test: Antifungal activity against sithiofam-resistant Gaeumannomyces graminis var. tritici isolate HN10 expressing C1 genetic cluster assessed as reduction in fungal colony diameter after 4 days; assay type: functional, organism-based; details: isolate HN10, 96 h
Gaeumannomyces tritici [17] = test: Antifungal activity against sithiofam-resistant Gaeumannomyces graminis var. tritici isolate HN08 expressing C1 genetic cluster assessed as reduction in fungal colony diameter after 4 days; assay type: functional, organism-based; details: isolate HN08, 96 h
Gaeumannomyces tritici [18] = test: Antifungal activity against sithiofam-resistant Gaeumannomyces graminis var. tritici isolate HN02 expressing C1 genetic cluster assessed as reduction in fungal colony diameter after 4 days; assay type: functional, organism-based; details: isolate HN02, 96 h
Gaeumannomyces tritici [19] = test: Antifungal activity against sithiofam-sensitive Gaeumannomyces graminis var. tritici isolate AH08 expressing C2 genetic cluster assessed as reduction in fungal colony diameter after 4 days; assay type: functional, organism-based; details: isolate AH08, 96 h
Gaeumannomyces tritici [20] = test: Antifungal activity against sithiofam-resistant Gaeumannomyces graminis var. tritici isolate HN16 expressing C1 genetic cluster assessed as reduction in fungal colony diameter after 4 days; assay type: functional, organism-based; details: isolate HN16, 96 h
Gaeumannomyces tritici [21] = test: Antifungal activity against sithiofam-sensitive Gaeumannomyces graminis var. tritici isolate AH07 expressing C2 genetic cluster assessed as reduction in fungal colony diameter after 4 days; assay type: functional, organism-based; details: isolate AH07, 96 h
Gaeumannomyces tritici [22] = test: Antifungal activity against sithiofam-resistant Gaeumannomyces graminis var. tritici isolate AH06 expressing C1 genetic cluster assessed as reduction in fungal colony diameter after 4 days; assay type: functional, organism-based; details: isolate AH06, 96 h
Gaeumannomyces tritici [23] = test: Antifungal activity against sithiofam-sensitive Gaeumannomyces graminis var. tritici isolate AH04 expressing C2 genetic cluster assessed as reduction in fungal colony diameter after 4 days; assay type: functional, organism-based; details: isolate AH04, 96 h
Gaeumannomyces tritici [24] = test: Antifungal activity against sithiofam-sensitive Gaeumannomyces graminis var. tritici isolate AH03 expressing C2 genetic cluster assessed as reduction in fungal colony diameter after 4 days; assay type: functional, organism-based; details: isolate AH03, 96 h
Gaeumannomyces tritici [25] = test: Antifungal activity against sithiofam-sensitive Gaeumannomyces graminis var. tritici isolate SD06 expressing C2 genetic cluster assessed as reduction in fungal colony diameter after 4 days; assay type: functional, organism-based; details: isolate SD06, 96 h
Gaeumannomyces tritici [26] = test: Antifungal activity against sithiofam-sensitive Gaeumannomyces graminis var. tritici isolate SD05 expressing C2 genetic cluster assessed as reduction in fungal colony diameter after 4 days; assay type: functional, organism-based; details: isolate SD05, 96 h
Gaeumannomyces tritici [27] = test: Antifungal activity against sithiofam-sensitive Gaeumannomyces graminis var. tritici isolate SD03 expressing C2 genetic cluster assessed as reduction in fungal colony diameter after 4 days; assay type: functional, organism-based; details: isolate SD03, 96 h
Gaeumannomyces tritici [28] = test: Antifungal activity against sithiofam-sensitive Gaeumannomyces graminis var. tritici isolate SD02 expressing C2 genetic cluster assessed as reduction in fungal colony diameter after 4 days; assay type: functional, organism-based; details: isolate SD02, 96 h
Gaeumannomyces tritici [29] = test: Antifungal activity against sithiofam-resistant Gaeumannomyces graminis var. tritici isolate AH13 expressing C1 genetic cluster assessed as reduction in fungal colony diameter after 4 days; assay type: functional, organism-based; details: isolate AH13, 96 h
Gaeumannomyces tritici [30] = test: Antifungal activity against sithiofam-sensitive Gaeumannomyces graminis var. tritici isolate AH12 expressing C2 genetic cluster assessed as reduction in fungal colony diameter after 4 days; assay type: functional, organism-based; details: isolate AH12, 96 h
Gaeumannomyces tritici [31] = test: Antifungal activity against sithiofam-sensitive Gaeumannomyces graminis var. tritici isolate AH11 expressing C2 genetic cluster assessed as reduction in fungal colony diameter after 4 days; assay type: functional, organism-based; details: isolate AH11, 96 h
Gaeumannomyces tritici [32] = test: Antifungal activity against sithiofam-sensitive Gaeumannomyces graminis var. tritici isolate HN32 expressing C2 genetic cluster assessed as reduction in fungal colony diameter after 4 days; assay type: functional, organism-based; details: isolate HN32, 96 h
Gaeumannomyces tritici [33] = test: Antifungal activity against sithiofam-sensitive Gaeumannomyces graminis var. tritici isolate HN31 expressing C3 genetic cluster assessed as reduction in fungal colony diameter after 4 days; assay type: functional, organism-based; details: isolate HN31, 96 h

With C=CCNC(=O)c1c([Si](C)(C)C)sc(C)c1C [SILTHIOFAM] the EC50 (Gaeumannomyces tritici [1]) was 0.2 ng/mL (≈ 0.748 nM), the EC50 (Gaeumannomyces tritici [2]) was 1.6 ng/mL (≈ 5.98 nM) and the Activity (Gaeumannomyces tritici [3]) was 3.19%. For the same molecule, the Activity (Gaeumannomyces tritici [4]) was 1.02%, the Activity (Gaeumannomyces tritici [5]) was 28.42% and the Activity (Gaeumannomyces tritici [6]) was 28%. The EC50 (Gaeumannomyces tritici [7]) was 48400 ng/mL (≈ 181000 nM), the EC50 (Gaeumannomyces tritici [8]) was 0.9 ng/mL (≈ 3.36 nM) and the EC50 (Gaeumannomyces tritici [9]) was 24800 ng/mL (≈ 92700 nM). For the same molecule, the EC50 (Gaeumannomyces tritici [10]) was 0.5 ng/mL (≈ 1.87 nM), the EC50 (Gaeumannomyces tritici [11]) was 1.8 ng/mL (≈ 6.73 nM) and the EC50 (Gaeumannomyces tritici [12]) was 0.3 ng/mL (≈ 1.12 nM). The EC50 (Gaeumannomyces tritici [13]) was 2.4 ng/mL (≈ 8.97 nM), the EC50 (Gaeumannomyces tritici [14]) was 51800 ng/mL (≈ 194000 nM) and the EC50 (Gaeumannomyces tritici [15]) was 53000 ng/mL (≈ 198000 nM). It also gave an EC50 (Gaeumannomyces tritici [16]) of 30200 ng/mL (≈ 113000 nM), an EC50 (Gaeumannomyces tritici [17]) of 62400 ng/mL (≈ 233000 nM) and an EC50 (Gaeumannomyces tritici [18]) of 88100 ng/mL (≈ 329000 nM). The EC50 (Gaeumannomyces tritici [19]) was 1.3 ng/mL (≈ 4.86 nM), the EC50 (Gaeumannomyces tritici [20]) was 28600 ng/mL (≈ 107000 nM) and the EC50 (Gaeumannomyces tritici [21]) was 0.6 ng/mL (≈ 2.24 nM). For the same molecule, the EC50 (Gaeumannomyces tritici [22]) was 29100 ng/mL (≈ 109000 nM), the EC50 (Gaeumannomyces tritici [23]) was 1.2 ng/mL (≈ 4.49 nM) and the EC50 (Gaeumannomyces tritici [24]) was 0.3 ng/mL (≈ 1.12 nM). For the same molecule, the EC50 (Gaeumannomyces tritici [25]) was 1.2 ng/mL (≈ 4.49 nM), the EC50 (Gaeumannomyces tritici [26]) was 0.7 ng/mL (≈ 2.62 nM) and the EC50 (Gaeumannomyces tritici [27]) was 0.9 ng/mL (≈ 3.36 nM). The EC50 (Gaeumannomyces tritici [28]) was 3.6 ng/mL (≈ 13.5 nM), the EC50 (Gaeumannomyces tritici [29]) was 70200 ng/mL (≈ 263000 nM) and the EC50 (Gaeumannomyces tritici [30]) was 0.6 ng/mL (≈ 2.24 nM). The EC50 (Gaeumannomyces tritici [31]) was 0.4 ng/mL (≈ 1.5 nM), the EC50 (Gaeumannomyces tritici [32]) was 0.4 ng/mL (≈ 1.5 nM) and the EC50 (Gaeumannomyces tritici [33]) was 0.4 ng/mL (≈ 1.5 nM).
